Measured values published in ChEMBL document CHEMBL4689842, “EUbOPEN Chemogenomics Library wave 1” (2021).

What was measured:
Type in all cases: toxicity, cell-based
[1] = tested on: HEK-293T; assay: Incucyte cell viability with HEK293T; conditions: human, 10 µM, compound concentration 10 uM
[2] = tested on: Fibroblast; assay: Incucyte cell viability with human fibroblast; conditions: 10 µM, compound concentration 10 uM
[3] = tested on: U2OS; assay: Incucyte cell viability with U2OS; conditions: human, 10 µM, compound concentration 10 uM
[4] = 0 h, replicate number 1, timepoint 0 hours
[5] = 6 h, replicate number 1, timepoint 6 hours
[6] = 12 h, replicate number 1, timepoint 12 hours
[7] = 18 h, replicate number 1, timepoint 18 hours
[8] = 24 h, replicate number 1, timepoint 24 hours
[9] = 6 h, replicate number 2, timepoint 6 hours
[10] = 12 h, replicate number 2, timepoint 12 hours
[11] = 24 h, replicate number 2, timepoint 24 hours
[12] = 0 h, replicate number 2, timepoint 0 hours
[13] = 18 h, replicate number 2, timepoint 18 hours
Further: filed as whole numbers so only -1 and 0 and 1 occur.

Row | SMILES | Growth Rate [1, 4] | Growth Rate [1, 5] | Growth Rate [1, 6] | Growth Rate [1, 7] | Growth Rate [1, 8] | Growth Rate [2, 4] | Growth Rate [2, 5] | Growth Rate [2, 10] | Growth Rate [2, 7] | Growth Rate [2, 8] | Growth Rate [3, 4] | Growth Rate [3, 5] | Growth Rate [3, 6] | Growth Rate [3, 7] | Growth Rate [3, 8] | Growth Rate [3, 11] | Growth Rate [1, 12] | Growth Rate [2, 6] | Growth Rate [3, 9] | Growth Rate [2, 11] | other results
1 | NS(=O)(=O)c1cc(NC(=O)C2(c3ccccc3Cl)CC2)ccc1Oc1cccc(Cl)c1 [BAY-207] | 0 | 0 | 0 | 0 | 0 | 0 | 1 | 1 | 1 | 1 | 0 | 0 | 0 | 0 | 1 | 0 | – | – | – | – | Growth Rate [2, 9]: 0
2 | CC1=C(C#N)C(c2ccc3c(c2)c(NC(=O)c2ccccc2C)nn3C)C(C#N)=C(C)N1 [BAY-974] | 0 | – | – | – | – | – | 1 | – | 1 | 1 | – | 1 | 1 | 1 | 1 | – | 1 | 1 | 0 | – | Growth Rate [1, 11]: 1; Growth Rate [2, 12]: 0; Growth Rate [3, 12]: 0; Growth Rate [3, 10]: 0
3 | C[C@H](c1ccnc(Nc2nc3ccc(-c4cc(N(C)C)ncn4)cc3[nH]2)c1)N1CCN(C(=O)CC(F)(F)F)CC1 [BAY-985] | 0 | – | – | – | – | 1 | 1 | – | 1 | 1 | 0 | 1 | 1 | 0 | 1 | – | 1 | 1 | – | – | Growth Rate [1, 11]: 1; Growth Rate [3, 13]: 1
4 | CC(=O)N1CCC(c2ccc(C(=O)NC3=NCCN3)cc2C(F)(F)F)CC1 [BI 0054] | 1 | 1 | 0 | 1 | 1 | 0 | 1 | – | 1 | 1 | 0 | – | 1 | 1 | 1 | – | 0 | 1 | – | – | Growth Rate [1, 9]: 0; Growth Rate [1, 13]: 0; Growth Rate [1, 11]: 0; Growth Rate [2, 9]: 0
5 | CN(C)C(=O)Cn1cc(-c2nc(C3(c4ccc(-c5cnc(N)nc5)cc4)CC3)no2)cn1 [BI 0153] | – | 0 | 0 | 0 | 0 | 1 | 0 | 1 | 0 | 0 | 0 | 0 | 0 | 0 | 0 | 1 | 1 | 0 | – | 1 | Growth Rate [1, 9]: 1; Growth Rate [1, 10]: 1; Growth Rate [1, 11]: 1; Growth Rate [2, 12]: 0
6 | CCC(=O)N[C@H]1CC[C@@H](C(=O)N(C)c2ccc(-c3nc4ccccc4o3)cc2)C1 [BI 99179] | – | 0 | 0 | 0 | 0 | 0 | 1 | – | 0 | 0 | 0 | 0 | 1 | 1 | 1 | 0 | 1 | 1 | 1 | 1 | Growth Rate [2, 12]: 1; Growth Rate [3, 13]: 0
7 | CCC(=O)N[C@@H]1CC[C@H](C(=O)N(C)c2ccc(-c3nc4ccccc4o3)cc2)C1 [BI 99990] | 0 | 0 | 0 | 0 | 0 | 0 | 0 | – | 0 | 1 | 0 | 0 | 0 | 0 | 0 | – | 1 | 0 | 1 | 0 | Growth Rate [3, 10]: 1
8 | CS(=O)(=O)c1cc(C2(NC(=O)c3cncc4c3cnn4-c3ccc(F)cc3)CC2)ccn1 [BI 639667] | 0 | 1 | 1 | 1 | 1 | 0 | 1 | 0 | 0 | 0 | 0 | – | 1 | 0 | 1 | – | – | 1 | 1 | – | Growth Rate [1, 9]: 0; Growth Rate [1, 10]: 0; Growth Rate [2, 9]: 0; Growth Rate [3, 12]: 1; Growth Rate [3, 10]: 0; Growth Rate [3, 13]: 1
9 | CC(C)NCC(O)c1ccc(N)c(C#N)c1 (stereo not given) [CIMATEROL] | 0 | 0 | 0 | 0 | 0 | 0 | – | 1 | – | – | 0 | 1 | 1 | 0 | 1 | 0 | – | – | – | 1 | Growth Rate [1, 9]: 1; Growth Rate [1, 10]: 1; Growth Rate [1, 13]: 1; Growth Rate [2, 13]: 0; Growth Rate [3, 13]: 1
10 | O=C(c1ccc(F)c(F)c1Nc1ccc(I)cc1F)N1CC(O)([C@@H]2CCCCN2)C1 [COBIMETINIB] | – | 0 | – | – | 1 | – | – | – | – | 1 | 0 | 0 | 0 | 0 | 0 | – | – | – | 1 | – | Growth Rate [1, 10]: 0; Growth Rate [1, 13]: 1; Growth Rate [1, 11]: 0
11 | CN(C)CC[C@@H](c1ccc(Cl)cc1)c1ccccn1.O=C(O)/C=C\C(=O)O [DEXCHLORPHENIRAMINE MALEATE] | 0 | 1 | 1 | 1 | 1 | 0 | 1 | – | 1 | 1 | 0 | – | 1 | 0 | 1 | 0 | – | 1 | 0 | 0 | Growth Rate [1, 9]: 0; Growth Rate [2, 13]: 0; Growth Rate [3, 10]: 0
12 | CCCCC[C@H](O)/C=C/[C@@H]1[C@@H](C/C=C\CCCC(=O)O)[C@@H](O)C[C@H]1O [DINOPROST] | 1 | 0 | 0 | 0 | 0 | 0 | – | 0 | – | – | 0 | – | 1 | 1 | 1 | – | 0 | – | 0 | 1 | Growth Rate [2, 9]: 1; Growth Rate [2, 13]: 1
13 | CCC1(C2=NCCN2)Cc2ccccc2O1 (stereo not given) [EFAROXAN] | 1 | 1 | 1 | 1 | 1 | 0 | 0 | – | 0 | 0 | 0 | – | 0 | 0 | 1 | – | 0 | 0 | 1 | – | Growth Rate [2, 12]: 1; Growth Rate [3, 12]: 1; Growth Rate [3, 10]: 1
14 | CNc1cc2[nH]c(=O)n(-c3ccc(NC(=O)NS(=O)(=O)c4ccc(Cl)s4)cc3)c(=O)c2cc1F [ELINOGREL] | 1 | 0 | 0 | 0 | 0 | 0 | – | 0 | 1 | 1 | 1 | 0 | 0 | 0 | 0 | 1 | 0 | 1 | – | 0 | Growth Rate [1, 10]: 1; Growth Rate [1, 13]: 1; Growth Rate [1, 11]: 1; Growth Rate [2, 12]: 1; Growth Rate [2, 9]: 0; Growth Rate [2, 13]: 0; Growth Rate [3, 10]: 1; Growth Rate [3, 13]: 1
